Assay in all cases: Growth inhibition assay for Breast Cancer (BC) Cell lines
Holding throughout (assay type): cell-based

One test deals with HCC1187. To be noted: Homo sapiens; HCC1187, TN; 96 hours, Cell Titer-Glo. Here is the method: (§1) Growth inhibition assay for Breast Cancer (BC) Cell lines. Compounds 1 (a TOR kinase inhibitor set forth herein having molecular formula C16H16N8O) and 2 (a TOR kinase inhibitor set forth herein having molecular formula C17H18N8O2) were dissolved in dimethyl sulfoxide (DMSO) to prepare a 10 mM stock solution. A serial titration was performed to produce a working concentration range of 1.5 µM to 10 mM. Aliquots to produce final concentrations of 1.5 nM to 10 µM were spotted via an acoustic dispenser (EDC ATS-100) into an empty 384-well plate. Compounds 1 and 2 were spotted in a 10-point serial dilution fashion (3-fold dilution) in duplicate within the plate. The DMSO concentration was kept constant for a final assay concentration of 0.1% DMSO. Plates were replicated for use with different cell lines and testing periods. After compound plate replication, all plates were sealed (Agilent ThermoLoc) and stored at -20° C. for up to 1 month. […] When ready for testing, plates were removed from the freezer, thawed, and unsealed just prior to the addition of the test cells. Prior to testing, cells were grown and expanded in culture flasks to provide sufficient amounts of starting material. Cells were then diluted to the appropriate densities and added directly to the compound-spotted 384-well plates. Cells were allowed to grow for 96 hours at 37° C./5% CO2. At the time when compound was added (t0), initial cell number was assessed via a viability assay (Cell Titer-Glo) by quantifying the level of luminescence generated by ATP present in viable cells. After 96 hours, cell viability of compound-treated cells was assessed via Cell Titer-Glo and luminescence measurement. Cell lines were assayed for growth inhibition by Compounds 1 and 2 in at least 3 independent tests. A control cell line (the lung tumor cell line, A549) was included in each of the assays. The compound response against this control cell line was monitored closely to enable comparison of the data generated through the assay period. All data were normalized and presented as a percentage of the DMSO-treated cells. Results were then expressed as a GI50 value. The GI50 value corrects for the cell count at time zero.

The test system of another test is HCC1806. The following applies: Homo sapiens; HCC1806, TN; 96 hours, Cell Titer-Glo. Here is the method:
as §1

The subject of another test is HDQ-P1. To be noted: Homo sapiens; HDQ-P1, TN; 96 hours, Cell Titer-Glo. Here is the method: as §1
A further test relates to MB157. To be noted: MB157, TN; 96 hours, Cell Titer-Glo. Here is the method: as §1
The next test deals with MDA-MB-231. The following applies: Homo sapiens; MDA-MB-231, TN; 96 hours, Cell Titer-Glo. As to the method:
as §1

The test system of another test is BT-20. To be noted: Homo sapiens; BT-20, TN; 96 hours, Cell Titer-Glo. Here is the method: as §1
The subject of a further test is MDA-MB-436. The following applies: Homo sapiens; MDA-MB-436, TN; 96 hours, Cell Titer-Glo. Here is the method:
as §1

A further test deals with HCC70. To be noted: Homo sapiens; HCC70, TN; 96 hours, Cell Titer-Glo. Here is the method:
as §1

Another test has as its system MDA-MB-468. To be noted: Homo sapiens; MDA-MB-468, TN; 96 hours, Cell Titer-Glo. As to the method:
as §1

A further test has as its system CAL-148. To be noted: Homo sapiens; CAL-148, TN; 96 hours, Cell Titer-Glo. As to the method:
as §1

A further test concerns HCC1937. To be noted: Homo sapiens; HCC1937, TN; 96 hours, Cell Titer-Glo. Here is the method: as §1
For a further test, the system named is HCC1143. To be noted: Homo sapiens; HCC1143, TN; 96 hours, Cell Titer-Glo. Here is the method: as §1
In another test the test system is BT-549. The following applies: Homo sapiens; BT-549, TN; 96 hours, Cell Titer-Glo. Here is the method:
as §1

The subject of the next test is CAL-85-1. The following applies: Homo sapiens; CAL-85-1, TN; 96 hours, Cell Titer-Glo. Here is the method:
as §1

A further test deals with CAL-51. To be noted: Homo sapiens; CAL-51, TN; 96 hours, Cell Titer-Glo. As to the method: as §1
For another test, the system named is HCC38. The following applies: Homo sapiens; HCC38, TN; 96 hours, Cell Titer-Glo. Here is the method:
as §1

In a further test the test system is MT-3. The following applies: MT-3, TN; 96 hours, Cell Titer-Glo. Here is the method: as §1
For a further test, the system named is CAL-120. To be noted: Homo sapiens; CAL-120, TN; 96 hours, Cell Titer-Glo. As to the method: as §1
In a further test the test system is MDA-MB-157. The following applies: Homo sapiens; MDA-MB-157, TN; 96 hours, Cell Titer-Glo. Here is the method:
as §1

The test system of a further test is HCC2157. To be noted: Homo sapiens; HCC2157, TN; 96 hours, Cell Titer-Glo. As to the method:
as §1

The next test deals with HS578T. The following applies: Homo sapiens, Hs-578T, TN, 96 hours, Cell Titer-Glo. As to the method: as §1
In another test the test system is DU4475. To be noted: Homo sapiens, DU-4475; DU4475, TN; 96 hours, Cell Titer-Glo. Here is the method:
as §1

With `CCN1C(=O)CNc2ncc(-c3ccc(-c4nc[nH]n4)nc3C)nc21` [Compound 1, 1-ethyl-7-(2-methyl-6-(1H-1,2,4-triazol-3-yl)pyridin-3-yl)-3,4-dihydropyrazino[2,3-b]pyrazin-2(1H)-one], the GI50 turned out to be 195 nM in the test with HCC1187; 187 nM in the test with HCC1806; 162 nM in the test on HDQ-P1; 346 nM in the test with MB157; 185 nM in the test on MDA-MB-231; 116 nM in the test with BT-20. The GI50 in the test on MDA-MB-436 came out at 279 nM; in the test with HCC70, 94.2 nM; in the test with MDA-MB-468, 87.2 nM; in the test on CAL-148, 187 nM; in the test on HCC1937 it was 161 nM; in the test on HCC1143, 400 nM. The GI50 in the test on BT-549 came to 146 nM; in the test on CAL-85-1 it was 88.8 nM; in the test on CAL-51, 71 nM; in the test on HCC38, 430 nM; in the test on MT-3, 150 nM; in the test on CAL-120, 182 nM. Besides, the GI50 worked out at 472 nM with MDA-MB-157, 51.5 nM in the test with HCC2157, 286 nM in the test on HS578T and 237 nM with DU4475.

The values above are taken from patent US20230338370A1, “Treatment of Cancer with TOR Kinase Inhibitors” (Signal Pharmaceuticals, LLC, priority 2012, published 2023).
